Results taken from ChEMBL document CHEMBL3774345, “Synthesis of new diarylamides with pyrimidinyl pyridine scaffold and evaluation of their anti-proliferative effect on cancer cell lines” (Bioorg Med Chem Lett, 2016).

How the values were obtained:
[1] = Cytotoxicity against human SF295 cells assessed as cell growth at 10^-7 M after 24 hrs by SRB assay; format: functional; details: SF-295, 24 h, read-out: Activity
[2] = Cytotoxicity against human SNB75 cells assessed as cell growth at 10^-8 M after 24 hrs by SRB assay; format: functional; details: SNB-75, 24 h, read-out: Activity
[3] = Cytotoxicity against human TK10 cells assessed as cell growth at 10^-8 M after 24 hrs by SRB assay; format: functional; details: TK-10, 24 h, read-out: Activity
[4] = Cytotoxicity against human SNB19 cells assessed as cell growth at 10^-6 M after 24 hrs by SRB assay; format: functional; details: SNB-19, 24 h, read-out: Activity
[5] = test system: NCI-H522; assay: Cytotoxicity against human NCI-H522 cells after 24 hrs by SRB assay; format: functional, cell-based; details: NCI-H522, 24 h
[6] = test system: EKVX; assay: Cytotoxicity against human EKVX cells after 24 hrs by SRB assay; format: functional
[7] = test system: NCI-H460; assay: Cytotoxicity against human NCI-H460 cells assessed as cell growth at 10^-8 M after 24 hrs by SRB assay; format: functional; details: NCI-H460, 24 h, read-out: Activity
[8] = Cytotoxicity against human OVCAR3 cells assessed as cell growth at 10^-6 M after 24 hrs by SRB assay; format: functional; details: OVCAR-3, 24 h, read-out: Activity
[9] = test system: NCI-H23; assay: Cytotoxicity against human NCI-H23 cells assessed as cell growth at 10^-6 M after 24 hrs by SRB assay; format: functional; details: NCI-H23, 24 h, read-out: Activity
[10] = test system: SK-MEL-2; assay: Cytotoxicity against human SK-MEL-2 cells assessed as cell growth at 10^-7 M after 24 hrs by SRB assay; format: functional; details: SK-MEL-2, 24 h, read-out: Activity
[11] = Cytotoxicity against human UACC62 cells assessed as cell growth at 10^-7 M after 24 hrs by SRB assay; format: functional; details: UACC-62, 24 h, read-out: Activity
[12] = test system: A549; assay: Cytotoxicity against human A549 cells assessed as cell growth at 10^-6 M after 24 hrs by SRB assay; format: functional; details: A549, 24 h, read-out: Activity
[13] = test system: Malme-3M; assay: Cytotoxicity against human MALME-3M cells assessed as cell growth at 10^-7 M after 24 hrs by SRB assay; format: functional; details: read-out: Activity
[14] = Cytotoxicity against human OVCAR8 cells assessed as cell growth at 10^-6 M after 24 hrs by SRB assay; format: functional; details: OVCAR-8, 24 h, read-out: Activity
[15] = Cytotoxicity against human BT549 cells assessed as cell growth at 10^-8 M after 24 hrs by SRB assay; format: functional; details: BT-549, 24 h, read-out: Activity
[16] = Cytotoxicity against human RXF393 cells after 24 hrs by SRB assay; format: functional, cell-based; details: RXF 393, 24 h
[17] = Cytotoxicity against human UACC257 cells assessed as cell growth at 10^-7 M after 24 hrs by SRB assay; format: functional; details: UACC-257, 24 h, read-out: Activity
[18] = Cytotoxicity against human SF539 cells assessed as cell growth at 10^-6 M after 24 hrs by SRB assay; format: functional; details: SF-539, 24 h, read-out: Activity
[19] = Cytotoxicity against human UACC62 cells after 24 hrs by SRB assay; format: functional, cell-based; details: UACC-62, 24 h
[20] = test system: M14; assay: Cytotoxicity against human M14 cells assessed as cell growth at 10^-4 M after 24 hrs by SRB assay; format: functional; details: M14, 24 h, read-out: Activity
[21] = test system: SK-MEL-28; assay: Cytotoxicity against human SK-MEL-28 cells assessed as cell growth at 10^-5 M after 24 hrs by SRB assay; format: functional; details: SK-MEL-28, 24 h, read-out: Activity
[22] = test system: NCI-H226; assay: Cytotoxicity against human NCI-H226 cells after 24 hrs by SRB assay; format: functional; details: NCI-H226, 24 h
[23] = test system: NCI-H522; assay: Cytotoxicity against human NCI-H522 cells assessed as cell growth at 10^-7 M after 24 hrs by SRB assay; format: functional; details: NCI-H522, 24 h, read-out: Activity
[24] = Cytotoxicity against human HOP92 cells assessed as cell growth at 10^-7 M after 24 hrs by SRB assay; format: functional; details: HOP-92, 24 h, read-out: Activity
[25] = test system: SK-MEL-28; assay: Cytotoxicity against human SK-MEL-28 cells after 24 hrs by SRB assay; format: functional, cell-based; details: SK-MEL-28, 24 h
[26] = Cytotoxicity against human IGROV1 cells assessed as cell growth at 10^-5 M after 24 hrs by SRB assay; format: functional; details: IGROV-1, 24 h, read-out: Activity
[27] = test system: NCI-H460; assay: Cytotoxicity against human NCI-H460 cells assessed as cell growth at 10^-6 M after 24 hrs by SRB assay; format: functional; details: NCI-H460, 24 h, read-out: Activity
[28] = Cytotoxicity against human PC3 cells assessed as cell growth at 10^-4 M after 24 hrs by SRB assay; format: functional; details: PC-3, 24 h, read-out: Activity
[29] = test system: NCI-H23; assay: Cytotoxicity against human NCI-H23 cells assessed as cell growth at 10^-8 M after 24 hrs by SRB assay; format: functional; details: NCI-H23, 24 h, read-out: Activity
[30] = Cytotoxicity against human BT549 cells assessed as cell growth at 10^-7 M after 24 hrs by SRB assay; format: functional; details: BT-549, 24 h, read-out: Activity
[31] = Cytotoxicity against human HCC2998 cells assessed as cell growth at 10^-7 M after 24 hrs by SRB assay; format: functional; details: HCC 2998, 24 h, read-out: Activity
[32] = Cytotoxicity against human SKOV3 cells assessed as cell growth at 10^-4 M after 24 hrs by SRB assay; format: functional; details: SK-OV-3, 24 h, read-out: Activity
[33] = test system: K562; assay: Cytotoxicity against human K562 cells assessed as cell growth at 10^-7 M after 24 hrs by SRB assay; format: functional; details: K562, 24 h, read-out: Activity
[34] = Cytotoxicity against human PC3 cells assessed as growth inhibition at 10 uM after 24 hrs by SRB assay; format: functional; details: PC-3, 24 h, read-out: GI
[35] = read-out: LC50 (the source's name)
[36] = read-out: pLC50 (the source's name) (converted)

For O=C(Nc1cc(-c2cccnc2)nc(NCCCN2CCOCC2)n1)c1cc(Br)cc(C(F)(F)F)c1, the growth at 0.1 µM [1] was 91%, the growth at 0.01 µM [2] was 88% and the growth at 0.01 µM [3] was 91%. For the same compound, the growth at 1 µM [4] was 105%, the IC50 [5] was 1.95 µM and the GI50 ([5]; read-out: GI50) was 1.95 µM. It also gave a CC50 [5, 35] of 23.3 µM, a TGI ([5]; read-out: TGI) of 5.31 µM and a GI50 ([5]; read-out: pGI50 (converted)) of 1.95 µM. The CC50 [5, 36] was 23.4 µM, the TGI ([5]; read-out: pTGI (converted)) was 5.37 µM and the GI50 ([6]; read-out: GI50) was 2.72 µM. It also gave a CC50 [6, 35] of 42.7 µM, a TGI ([6]; read-out: TGI) of 14.4 µM and a GI50 ([6]; read-out: pGI50 (converted)) of 2.69 µM. It also gave a CC50 [6, 36] of 42.7 µM, a TGI ([6]; read-out: pTGI (converted)) of 14.5 µM and a growth at 0.01 µM [7] of 99%. The growth at 1 µM [8] was 100%, the growth at 1 µM [9] was 89% and the growth at 0.1 µM [10] was 95%. For the same compound, the growth at 0.1 µM [11] was 90%, the growth at 1 µM [12] was 119% and the growth at 0.1 µM [13] was 95%. The growth at 1 µM [14] was 102%, the growth at 0.01 µM [15] was 95% and the IC50 [16] was 1.8 µM. It also gave a GI50 ([16]; read-out: GI50) of 1.8 µM, a CC50 [16, 35] of 7.23 µM and a TGI ([16]; read-out: TGI) of 3.61 µM. The GI50 ([16]; read-out: pGI50 (converted)) was 1.82 µM, the CC50 [16, 36] was 7.24 µM and the TGI ([16]; read-out: pTGI (converted)) was 3.63 µM. The growth at 0.1 µM [17] was 100%, the growth at 1 µM [18] was 85% and the GI50 [19] was 1.95 µM. The CC50 [19, 35] was 9.92 µM, the TGI ([19]; read-out: TGI) was 4.38 µM and the CC50 [19, 36] was 10 µM. The TGI ([19]; read-out: pTGI (converted)) was 4.37 µM, the growth at 100 µM [20] was -71% and the growth at 10 µM [21] was -75%. It also gave a GI50 ([22]; read-out: GI50) of 9.3 µM, a CC50 [22, 35] of 52.3 µM and a TGI ([22]; read-out: TGI) of 22.7 µM. The GI50 ([22]; read-out: pGI50 (converted)) was 9.33 µM, the CC50 [22, 36] was 52.5 µM and the TGI ([22]; read-out: pTGI (converted)) was 22.9 µM. It also gave a growth at 0.1 µM [23] of 92%, a growth at 0.1 µM [24] of 80% and an IC50 [25] of 1.73 µM. For the same compound, the GI50 ([25]; read-out: GI50) was 1.73 µM, the CC50 [25, 35] was 7.02 µM and the TGI ([25]; read-out: TGI) was 3.48 µM. For the same compound, the GI50 ([25]; read-out: pGI50 (converted)) was 1.74 µM, the CC50 [25, 36] was 7.08 µM and the TGI ([25]; read-out: pTGI (converted)) was 3.47 µM. It also gave a growth at 10 µM [26] of 29%, a growth at 1 µM [27] of 99% and a growth at 100 µM [28] of -93%. For the same compound, the growth at 0.01 µM [29] was 98%, the growth at 0.1 µM [30] was 97% and the growth at 0.1 µM [31] was 100%. The growth at 100 µM [32] was -99% and the growth at 0.1 µM [33] was 91%.
In the case of COCCCNc1nc(NC(=O)c2cc(Br)cc(C(F)(F)F)c2)cc(-c2cccnc2)n1, the inhibition of growth at 10 µM [34] is reported as 29.4%.
